# Source: article PMC8187479, “Sugar phosphate activation of the stress sensor eIF2B” (Nature Communications, 2021)
# Target: T1, eIF2B in WT HEK293T lysate (Homo sapiens, UniProt P49770+Q14232+Q9UI10)
# T1 construct: endogenous in cells; host or cells: HEK293T (wild type) lysate
# Test: GEF activity assay with WT HEK293T lysate
# Assay type: biochemical
# Description: Bodipy-FL-GDP-loaded eIF2 was used as a substrate for recombinant eIF2B. The assay was performed in 384-well plates. Reactions were read on a SpectraMax i3x plate reader (Molecular Devices) using the instrument’s Softmax Pro software with the following parameters: plate temperature = 25 °C; excitation wavelength = 485 nm (15 nm width); emission wavelength = 535 nm (25 nm width); read duration = 30 min at 45 s intervals. Data were analyzed in Prism. GDP release half-lives were calculated by fitting single-exponential decay curves.
# For unbiased screening, MIDAS metabolite libraries at 10 mM stock concentration were dispensed into wells of the assay plate using an Echo Acoustic Liquid Handler (Labcyte). In a final assay volume of 10 μL/well, the following conditions were kept constant: 25 nM Bodipy-FL-GDP-loaded eIF2, 4 nM phospho-eIF2, 0.1 mM GDP, 1 mg/mL BSA, 1 nM eIF2B, 10 μM metabolite. A single well was run for each metabolite. For targeted experiments with recombinant wild-type and mutant eIF2Bα, the following conditions were used: 50 nM Bodipy-FL-GDP-loaded eIF2, 0.1 mM GDP, 1 mg/ml BSA, 20 nM eIF2B. For targeted experiments with HEK293T lysates, the following conditions were used: 50 nM Bodipy-FL-GDP-loaded eIF2, 0.1 mM GDP, 1 mg/ml BSA, 0.1 or 0.3 mg/ml lysates.
# T1 sequence (Q14232 whole entry): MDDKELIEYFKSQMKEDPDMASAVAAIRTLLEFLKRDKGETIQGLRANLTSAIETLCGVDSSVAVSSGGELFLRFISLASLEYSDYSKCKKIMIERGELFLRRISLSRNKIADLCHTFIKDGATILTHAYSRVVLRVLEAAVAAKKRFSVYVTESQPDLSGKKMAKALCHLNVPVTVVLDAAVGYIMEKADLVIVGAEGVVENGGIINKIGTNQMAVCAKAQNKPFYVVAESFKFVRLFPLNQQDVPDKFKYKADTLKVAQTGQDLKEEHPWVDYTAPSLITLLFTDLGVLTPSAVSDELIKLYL
# T1 sequence (P49770 whole entry): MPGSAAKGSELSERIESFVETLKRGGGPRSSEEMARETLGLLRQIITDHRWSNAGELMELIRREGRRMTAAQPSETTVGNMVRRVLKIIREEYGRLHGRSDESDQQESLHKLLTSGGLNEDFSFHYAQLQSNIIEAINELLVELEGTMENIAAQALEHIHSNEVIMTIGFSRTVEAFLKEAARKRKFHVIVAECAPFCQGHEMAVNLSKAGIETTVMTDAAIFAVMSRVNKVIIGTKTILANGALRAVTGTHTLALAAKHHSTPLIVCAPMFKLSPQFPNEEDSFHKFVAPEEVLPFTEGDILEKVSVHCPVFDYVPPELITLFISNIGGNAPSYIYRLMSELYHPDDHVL
# T1 sequence (Q9UI10 whole entry): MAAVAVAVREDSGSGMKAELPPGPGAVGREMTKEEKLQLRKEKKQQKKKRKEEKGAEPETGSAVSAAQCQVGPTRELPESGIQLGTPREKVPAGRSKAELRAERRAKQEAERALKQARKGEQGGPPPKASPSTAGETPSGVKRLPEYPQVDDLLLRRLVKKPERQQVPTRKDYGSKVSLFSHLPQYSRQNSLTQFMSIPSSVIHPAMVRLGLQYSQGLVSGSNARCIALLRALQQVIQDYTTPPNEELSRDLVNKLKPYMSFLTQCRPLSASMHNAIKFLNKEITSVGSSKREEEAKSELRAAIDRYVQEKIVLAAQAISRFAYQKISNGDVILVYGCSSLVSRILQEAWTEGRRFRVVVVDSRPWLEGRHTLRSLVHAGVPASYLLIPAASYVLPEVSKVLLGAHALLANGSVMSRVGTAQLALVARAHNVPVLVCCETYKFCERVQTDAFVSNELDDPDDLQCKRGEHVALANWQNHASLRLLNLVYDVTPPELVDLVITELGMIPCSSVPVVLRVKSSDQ
# T1 sequence (Q9NR50 whole entry partner): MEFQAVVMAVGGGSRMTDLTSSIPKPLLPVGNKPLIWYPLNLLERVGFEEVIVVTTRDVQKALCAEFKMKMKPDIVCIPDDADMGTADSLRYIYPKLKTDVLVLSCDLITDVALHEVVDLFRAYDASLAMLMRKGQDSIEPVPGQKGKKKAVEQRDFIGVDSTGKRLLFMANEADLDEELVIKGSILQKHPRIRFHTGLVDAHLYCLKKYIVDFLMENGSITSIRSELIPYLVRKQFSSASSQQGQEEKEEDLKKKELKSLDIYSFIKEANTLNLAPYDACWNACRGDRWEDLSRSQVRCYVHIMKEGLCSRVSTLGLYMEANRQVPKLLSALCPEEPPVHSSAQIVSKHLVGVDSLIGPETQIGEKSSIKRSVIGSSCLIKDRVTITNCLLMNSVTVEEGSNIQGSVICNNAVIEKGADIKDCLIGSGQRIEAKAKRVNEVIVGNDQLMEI
# T1 sequence (Q13144 whole entry partner): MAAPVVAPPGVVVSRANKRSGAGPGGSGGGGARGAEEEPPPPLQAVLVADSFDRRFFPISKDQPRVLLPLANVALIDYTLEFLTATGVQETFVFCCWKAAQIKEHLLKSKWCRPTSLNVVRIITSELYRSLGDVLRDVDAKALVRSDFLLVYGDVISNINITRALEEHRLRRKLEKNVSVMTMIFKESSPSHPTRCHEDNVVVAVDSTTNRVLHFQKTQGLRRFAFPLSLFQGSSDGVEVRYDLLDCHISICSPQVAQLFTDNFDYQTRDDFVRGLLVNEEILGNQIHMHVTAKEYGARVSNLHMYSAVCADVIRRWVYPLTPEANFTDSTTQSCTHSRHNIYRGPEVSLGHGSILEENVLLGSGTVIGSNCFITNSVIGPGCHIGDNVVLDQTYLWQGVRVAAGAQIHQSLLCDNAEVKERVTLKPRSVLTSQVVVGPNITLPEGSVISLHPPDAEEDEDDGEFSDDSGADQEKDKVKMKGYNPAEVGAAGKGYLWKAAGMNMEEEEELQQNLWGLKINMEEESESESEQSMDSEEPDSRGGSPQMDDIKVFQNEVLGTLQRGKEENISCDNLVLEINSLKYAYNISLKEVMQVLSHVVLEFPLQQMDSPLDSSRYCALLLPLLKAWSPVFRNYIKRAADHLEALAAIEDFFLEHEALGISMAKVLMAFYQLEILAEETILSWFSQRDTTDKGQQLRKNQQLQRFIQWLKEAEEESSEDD
structure (smiles),measurement,value
"O=C(CO)[C@@H](O)[C@H](O)[C@H](O)COP(=O)(O)O [F6P, fructose-6-phosphate]",effect on GEF activity of WT lysate,stimulated
